Read-outs that look alike come from different tables or passages of the source. One block for each molecule: values may come before it.
What was measured:
BAEC [1] = format: cell-based, bovine; conditions: for Effect on doxorubicin uptake (in words): assay as for C6-SM, Table 1
Method: (§1) For intracellular doxorubicin measurements, cells were cultured in flat-bottom 96-well plates. At confluence, cells were changed to a serum-free medium and exposed to 50 μM doxorubicin during 60 min (unless indicated otherwise). After washing with ice-cold PBS, cells were lysed in 1% (w v^−1) Triton X-100 in water. Native fluorescence intensities were then measured by a Perkin-Elmer Victor Wallac II fluorescence microplate reader, using λex 485 nm and λem 535 nm filters. Additional probes and drugs that were tested for cellular uptake during 60 min incubations, either in the absence or presence of lipid, were hydrazide-AF488 (35 μM, λex 485 nm, λem 535 nm), sulphorodamine-101 (400 μM, λex 355 nm, λem 620 nm), propidium iodide (300 μM, λex 355 nm, λem 535 nm), o-phtaldialdehyde (1 mM, λex 485 nm, λem 535 nm), topotecan (30 μM, λex 355 nm, λem 535 nm), epirubicin (50 μM, λex 485 nm, λem 535 nm), bisbenzimidine (10 μM, λex 355 nm, λem 460 nm), camptothecin (30 μM, λex 355 nm, λem 460 nm), daunorubicin (25 μM, λex 485 nm, λem 535 nm) and idarubicin (20 μM, λex 485 nm, λem 535 nm).

[2] = system: control renal fibroblasts; test: Cellular doxorubicin accumulation in control kidney fibroblasts; format: cell-based, mice; conditions: Table 2, C6-SM 10 μM, 60 min
Method: (§2) The following cell types were cultured in Dulbecco's modified Eagle's medium (DMEM) containing 10% (v v^−1) foetal calf serum: primary bovine aortic endothelial cells (BAEC; passage 14–19), kindly provided by Dr A Haimovitz-Friedman (Memorial Sloan-Kettering Cancer Center, New York City NY, USA); MCF-7, KB and A431 carcinoma cells, purchased from the American Type Culture Collection (Manassas VA, USA); SV40 large-T antigen-immortalised kidney fibroblasts from Mrp1/Mdr1a/Mdr1b triple knockout mice and control renal fibroblasts ([Wijnholds et al, 2000]; kindly provided by Dr AH Schinkel, The Netherlands Cancer Institute, Amsterdam). […] All culture media were supplemented with 100 U ml^−1 penicillin, 100 μg ml^−1 streptomycin and 4 mM L-glutamine. For intracellular doxorubicin measurements, cells were cultured in flat-bottom 96-well plates. […] After washing with ice-cold PBS, cells were lysed in 1% (w v^−1) Triton X-100 in water. Native fluorescence intensities were then measured by a Perkin-Elmer Victor Wallac II fluorescence microplate reader, using λex 485 nm and λem 535 nm filters.

BAEC [3] = test: Raft-mediated endocytosis: AF488-CTB uptake; format: cell-based, bovine; conditions: 10 μM C6-SM, 120 min
Method: (§3) To monitor clathrin- and raft-mediated endocytic activity, confluent BAEC were allowed to take up AF488-transferrin (150 μg ml^−1) or AF488-CTB (75 μg ml^−1), respectively. Incubations were performed under serum-free conditions in the presence of 10 μM C6-SM during 120 min. Cells were then washed and lysed in PBS containing 1% (v v^−1) Triton X-100. Fluorescence was then measured at λex 485 nm and λem 535 nm.

BAEC [4] = system: BAEC
Method: (§4) For viability assessment, cells were cultured in flat-bottom 96-well plates. After experimental treatments, 100 μg of the mitochondrial dehydrogenase substrate MTT was added to each well ([Carmichael et al, 1987]). Cells were then incubated for 60 min at 37°C. After centrifugation (3000 rpm, 10 min) supernatants were removed. The precipitated blue formazan products were then dissolved in 100 μl DMSO and absorbencies were read in a Bio-Tek Instruments EL 340 photospectrometric microplate reader at 540 nm. Background absorbencies were subtracted and values from untreated control cells were set at 100% viability.
(§5) After washing away remaining extracellular drug and lipid, cells were cultured for another 48 h. Viability was then assessed by the MTT assay, which relies on the fact that only mitochondria of viable cells have the capacity to convert the MTT substrate ([Carmichael et al, 1987]).

A431 cells = test: Cell viability, MTT assay; format: cell-based, human; conditions: for EC50: Homo sapiens, 60 min exposure, 48 h further culture, read-out: Doxorubicin EC50
Method: After centrifugation (3000 rpm, 10 min) supernatants were removed.

[5] = system: MCF-7 (mammary adenocarcinoma); test: Cellular doxorubicin accumulation, fluorimetry of cell lysates; format: cell-based, human; conditions: 50 μM doxorubicin, 60 min
Method: as §1

[6] = system: KB (oesophagal carcinoma); test: as above; format: cell-based, human; conditions: 50 μM doxorubicin, 60 min
Method: as §1

[7] = system: A431 (epidermoid carcinoma); test: as above; format: cell-based, human; conditions: 50 μM doxorubicin, 60 min
Method: as §1

BAEC [8] = test: Plasma membrane integrity: uptake of fluid phase marker hydrazide-AF488; format: cell-based, bovine; conditions: 10 μM C6-SM
Method: Confluent and serum-free BAEC were incubated for 120 min in the presence of C6-SM and 175 μM of the membrane impermeant fluid phase marker hydrazide-AF488. After washing, cells were lysed in PBS containing 1% (w v^−1) Triton X-100 and fluorescence was measured at λex 485 nm and λem 535 nm. […] All data were corrected for protein contents, as determined with the BCA assay ([Smith et al, 1985]).

BAEC [9] = test: Clathrin-mediated endocytosis: AF488-transferrin uptake; format: cell-based, bovine; conditions: 10 μM C6-SM, 120 min
Method: as §3

[10] = system: kidney fibroblasts from Mrp1/Mdr1a/Mdr1b triple knockout mice; test: Cellular doxorubicin accumulation in ABC-transporter knockout fibroblasts; format: cell-based
Method: as §2

BAEC [11] = test: cells; conditions: Bos taurus
Method: as §4, §5

BAEC [12] = test: Cellular uptake of fluorescent drugs and probes with or without C6-SM; format: cell-based, bovine; conditions: 10 μM C6-SM, 60 min
Method: as §1

[13] = Lipophilicity: 1-octanol/water partitioning; format: physicochemical; conditions: 1-octanol/water partition ratio
Method: Partitioning of 10–50 μM drug or probe was monitored in a two-phase system consisting of 1 ml 1-octanol and 1 ml water. After addition of the compound, tubes were vortexed and centrifuged (3000 rpm, 5 min, 20°C). Aliquots of both the organic and the aqueous phases were taken for fluorimetric quantification, as described under Cellular drug accumulation. As a measure of lipophilicity, the 1-octanol/water partitioning ratio was calculated for each compound and expressed on a log scale ([Washington et al, 2001]).

[14] = 10 μM lipid analogue with 50 μM doxorubicin, 60 min, control = no lipid, no ethanol, n=3

Molecule: CCCCCCCCCC(=O)NC(CN1CCOCC1)C(O)c1ccccc1 (racemic) [PPMP]
- Doxorubicin (% of control±s.d.) (BAEC [1]; Table 4, PPMP 30 μM, 96 h pretreatment, no C6-SM): 166.5±22.5 % of control

Molecule: CCCCCCCCCCCCC/C=C/C(O)C(COP(=O)([O-])OCC[N+](C)(C)C)NC(C)=O (stereo not drawn) [C2-sphingomyelin, N-acetyl-sphingomyelin]
- Doxorubicin (% of control±s.d.) (BAEC [1]; [14]): 129.6±19.6 % of control
- Effect on doxorubicin uptake (in words) (BAEC [1]): moderate effect

Molecule: CCCCCCCCCCCCCC=CC(O)C(COP(=O)([O-])OCC[N+](C)(C)C)NC(=O)CCCCC (stereo not drawn) [C6-SM, N-hexanoyl-sphingomyelin]
- Doxorubicin (% of control±s.d.) [2]: 331.8±50.2 % of control
- CTB uptake compared to 100% uptake under control conditions (BAEC [3]): 80±23%
- Toxicity of C6-SM itself (BAEC [4]): virtually nontoxic
- Increase in doxorubicin sensitivity (BAEC [4]; BAEC, 10 μM C6-SM vs none): seven-fold increase in sensitivity
- Increase in drug sensitivity (A431 cells; A431, with C6-SM vs none): 14 fold
- Concentration-dependent C6-SM effect on doxorubicin accumulation compared with BAEC [5]: Comparable results
- Concentration-dependent C6-SM effect on doxorubicin accumulation compared with BAEC [6]: Comparable results
- Concentration-dependent C6-SM effect on doxorubicin accumulation compared with BAEC [7]: Comparable results
- Hydrazide-AF488 uptake compared to 100% control uptake (BAEC [8]): 97.4±18.2%
- C6-SM concentration at which the plateau in doxorubicin-uptake enhancement and cytotoxicity is reached (BAEC [1]): about 8 μM
- Enhanced doxorubicin uptake after washing away C6-SM not taken up by the cells (BAEC [1]): remained
- Increase of intracellular doxorubicin over control levels (BAEC [1]; 10 μM C6-SM, 50 μM doxorubicin, incubation periods of 15–60 min): up to 300%
- Doxorubicin (% of control±s.d.) (BAEC [1]; [14]): 328.3±24.4 % of control
- Lipid concentration giving a significant increase in drug uptake (BAEC [1]; 50 μM doxorubicin, 60 min): 2 µM
- Doxorubicin (% of control±s.d.) (BAEC [1]; Table 2, C6-SM 10 μM + ATP depletion): 410.9±157.0 % of control
- Doxorubicin (% of control±s.d.) (BAEC [1]; Table 2, C6-SM 10 μM + MK571 12.5 μM): 323.3±23.0 % of control
- Doxorubicin (% of control±s.d.) (BAEC [1]; Table 2, C6-SM 10 μM + PSC833 5 μM): 278.1±40.7 % of control
- Doxorubicin (% of control±s.d.) (BAEC [1]; Table 2, C6-SM 10 μM alone, 60 min, n=3): 369.0±113.0 % of control
- Doxorubicin (% of control±s.d.) (BAEC [1]; Table 4, C6-SM 10 μM after CDX 10 mM, 30 min): 264.7±72.1 % of control
- Doxorubicin (% of control±s.d.) (BAEC [1]; Table 4, C6-SM 10 μM after PPMP 30 μM, 96 h): 340.7±78.6 % of control
- Doxorubicin (% of control±s.d.) (BAEC [1]; Table 4, C6-SM 10 μM after bSMase 200 mU ml^−1, 2 h): 386.2±74.7 % of control
- Doxorubicin (% of control±s.d.) (BAEC [1]; Table 4, C6-SM 10 μM, no pretreatment, n=3): 353.3±62.6 % of control
- Maximum increase in doxorubicin uptake over control values (BAEC [1]; at 6 μM C6-SM, 50 μM doxorubicin, 60 min): 300%
- C6-SM-stimulated doxorubicin uptake under conditions that block endocytosis (BAEC [1]; cells at 4°C or depleted for ATP (sodium azide and deoxyglucose)): remained unaffected
- Active concentrations (BAEC [1]; doxorubicin uptake enhancement): 2 to 6 µM
- Drug uptake-enhancing effect after removal of membrane-inserted C6-SM (BAEC [1]; hydrolysis by exogenous bSMase or BSA back-exchange, not shown): strongly diminished
- Enhanced uptake of doxorubicin (BAEC [1]; low micromolar amounts of lipid (abstract)): up to 300%
- Transferrin uptake compared to 100% uptake under control conditions (BAEC [9]): 67±36%
- Increase compared to doxorubicin uptake in the absence of the lipid analogue ([10]; like in normal fibroblasts): three- to four-fold increase

Molecule: CCCCCCCCCCCCC/C=C/[C@@H](O)[C@H](CO)NC(=O)CCCCC [C6-ceramide]
- Doxorubicin (% of control±s.d.) (BAEC [1]; [14]): 105.6±6.5 % of control
- Effect on doxorubicin uptake (in words) (BAEC [1]): little or no effect

Molecule: CCCCCC(=O)OCC(COP(=O)([O-])OCC[N+](C)(C)C)OC(=O)CCCCC (stereo not drawn) [C6-phosphatidylcholine, dihexanoyl-phosphatidylcholine]
- Doxorubicin (% of control±s.d.) (BAEC [1]; [14]): 101.0±28.2 % of control
- Effect on doxorubicin uptake (in words) (BAEC [1]): completely without effect

Molecule: CCCCCCCCCCCCC/C=C/[C@@H](O)[C@H](COP(=O)(O)O)NC(=O)CCCCCCC [C8-ceramide 1-phosphate, C8-ceramide-1-phosphate]
- Doxorubicin (% of control±s.d.) (BAEC [1]; [14]): 116.5±20.6 % of control
- Effect on doxorubicin uptake (in words) (BAEC [1]): little or no effect

Molecule: COc1cccc2c1C(=O)c1c(O)c3c(c(O)c1C2=O)C[C@@](O)(C(=O)CO)C[C@@H]3O[C@H]1C[C@H](N)[C@H](O)[C@H](C)O1 [Doxorubicin, doxorubicin]
- EC50 (A431 cells; A-431, A431, with C6-SM): 0.13 µM
- EC50 (A431 cells; A-431, A431, without C6-SM): 1.8 µM
- EC50 (BAEC [11]; read-out: Doxorubicin EC50 for BAEC toxicity, absence of C6-SM, 60 min exposure, 48 h further culture): 4 µM
- EC50 (BAEC [11]; read-out: Doxorubicin EC50 for BAEC toxicity, with 10 μM C6-SM, 60 min exposure, 48 h further culture): 0.6 µM
- Doxorubicin (% of control±s.d.) (BAEC [1]; Table 2, ATP depletion (2-deoxy-D-glucose + sodium azide, 90 min), no C6-SM): 108.2±46.7 % of control
- Doxorubicin (% of control±s.d.) ([10]; Table 2, no C6-SM, relative to control fibroblasts): 101.7±14.3 % of control

Molecule: CN(C)C(=O)CCSC(SCCC(=O)O)c1cccc(/C=C/c2ccc3ccc(Cl)cc3n2)c1 (stereo not drawn) [MK571]
- Doxorubicin (% of control±s.d.) (BAEC [1]; Table 2, MK571 12.5 μM, no C6-SM): 103.5±30.2 % of control

Molecule: C/C=C/C[C@@H](C)C(=O)[C@H]1C(=O)N[C@@H](C(C)C)C(=O)N(C)CC(=O)N(C)[C@@H](CC(C)C)C(=O)N[C@@H](C(C)C)C(=O)N(C)[C@@H](CC(C)C)C(=O)N[C@@H](C)C(=O)N[C@H](C)C(=O)N(C)[C@@H](CC(C)C)C(=O)N(C)[C@@H](CC(C)C)C(=O)N(C)[C@@H](C(C)C)C(=O)N1C [PSC833]
- Doxorubicin (% of control±s.d.) (BAEC [1]; Table 2, PSC833 5 μM, no C6-SM): 76.0±15.6 % of control

Molecule: CCCCCCCCCCCCC/C=C/[C@@H](O)[C@@H](N)COP(=O)([O-])OCC[N+](C)(C)C [Sphingosinephosphorylcholine, sphingosylphosphorylcholine]
- Doxorubicin (% of control±s.d.) (BAEC [1]; [14]): 143.2±10.0 % of control
- Effect on doxorubicin uptake (in words) (BAEC [1]): moderate effect

Molecule: CC[C@@]1(O)C(=O)OCc2c1cc1n(c2=O)Cc2cc3ccccc3nc2-1 [camptothecin]
- Sensitivity towards C6-SM uptake enhancement (BAEC [12]): mostly insensitive to C6-SM

Molecule: COc1cccc2c1C(=O)c1c(O)c3c(c(O)c1C2=O)C[C@@](O)(C(C)=O)C[C@@H]3O[C@H]1C[C@H](N)[C@H](O)[C@H](C)O1 [daunorubicin]
- Sensitivity towards C6-SM uptake enhancement (BAEC [12]): mostly insensitive to C6-SM
- Lipophilicity compared with doxorubicin [13]: significantly higher

Molecule: COc1cccc2c1C(=O)c1c(O)c3c(c(O)c1C2=O)C[C@@](O)(C(=O)CO)C[C@@H]3O[C@H]1C[C@H](N)[C@@H](O)[C@H](C)O1 [epirubicin]
- Sensitivity towards C6-SM uptake enhancement (BAEC [12]): C6-SM sensitive

- Lipophilicity compared with doxorubicin [13]: significantly higher
Molecule: CC(=O)[C@]1(O)Cc2c(O)c3c(c(O)c2[C@@H](O[C@H]2C[C@H](N)[C@H](O)[C@H](C)O2)C1)C(=O)c1ccccc1C3=O [idarubicin]
- Sensitivity towards C6-SM uptake enhancement (BAEC [12]): mostly insensitive to C6-SM

Molecule: CC[C@@]1(O)C(=O)OCc2c1cc1n(c2=O)Cc2cc3c(CN(C)C)c(O)ccc3nc2-1 [topotecan]
- Sensitivity towards C6-SM uptake enhancement (BAEC [12]): C6-SM sensitive

Molecule: methyl-β-cyclodextrin [CDX]
- Doxorubicin (% of control±s.d.) (BAEC [1]; Table 4, CDX 10 mM, 30 min pretreatment, no C6-SM): 113.0±28.1 % of control

Molecule: sphingomyelin [Endogenous SM]
- Effect on doxorubicin uptake (in words) (BAEC [1]): does not work

— PMC2410169, “N-hexanoyl-sphingomyelin potentiates in vitro doxorubicin cytotoxicity by enhancing its cellular influx” (British Journal of Cancer, 2004)
